The record followed here is patent US20190374563A1, “TREATMENT OF KLEBSIELLA PNEUMONIAE INFECTIONS WITH ANTIBACTERIAL AMINOGLYCOSIDE COMPOUNDS” (Achaogen, Inc., priority 2009, published 2019).

SMILES strings stand for the structures. ≈ marks a conversion by molar mass, not a printed value. Read-outs that look alike come from different tables or passages of the source.

In assay [1] the test system is P. aeruginosa ATCC 27853 (APAE001). The experiment in a line: MIC assay, CLSI broth microdilution. The class given is cell-based. Conditions: Pseudomonas aeruginosa. The protocol:
(§1) Minimum inhibitory concentrations (MIC) were determined by reference Clinical and Laboratory Standards Institute (CLSI) broth microdilution methods per M7-A7 [2006]. Quality control ranges utilizing E. coli ATCC 25922, P. aeruginosa ATCC 27853 and S. aureus ATCC 29213, and interpretive criteria for comparator agents were as published in CLSI M100-S17 [2007]. Briefly, serial two-fold dilutions of the test compounds were prepared at 2× concentration in Mueller Hinton Broth. The compound dilutions were mixed in 96-well assay plates in a 1:1 ratio with bacterial inoculum. The inoculum was prepared by suspension of a colony from an agar plate that was prepared the previous day. Bacteria were suspended in sterile saline and added to each assay plate to obtain a final concentration of 5×10^5 CFU/mL. The plates were incubated at 35° C. for 20 hours in ambient air.

The subject of assay [2] is E. coli ATCC 25922 (AECO001). The experiment in a line: MIC assay, CLSI broth microdilution. It counts as cell-based. Further details: MIC AECO001: unit not given here. The conditions noted are these: for MIC: Escherichia coli. The protocol:
as §1
A general note: Dilution methods test growth across graded concentrations, often in twofold steps.

The mark [3] stands for this setting: ATCC27853, read-out: MIC APAE001.
Where [4] appears, read: ATCC25922, read-out: MIC AECO001.

The term MIC denotes the smallest concentration in the dilution series that meets the test's criterion for growth inhibition. As for `CN[C@@H]1[C@@H](O)[C@@H](O[C@@H]2[C@@H](O)[C@H](O[C@H]3OC(CNC[C@H]4C[C@H](O)CN4)=CC[C@H]3N)[C@@H](N)C[C@H]2NC(=O)[C@@H](O)CN)OC[C@]1(C)O` [Example 53, 6′-(Methyl-4(S)-hydroxy-pyrrolidin-2(R)-yl)-1-(3-amino-2(S)-hydroxy-propionyl)-sisomicin], the MIC in assay [1] (setting [3]) is above 16 µg/mL; in assay [2] (setting [4]), 1 to 16 µg/mL (≈ 1.58 to 25.2 µM).

For the molecule `CN[C@@H]1[C@@H](O)[C@@H](O[C@@H]2[C@@H](O)[C@H](O[C@H]3OC(CNCCCO)=CC[C@H]3N)[C@@H](N)C[C@H]2NC(=O)[C@@H](O)CN)OC[C@]1(C)O` [Example 54, 6′-(3-Propanol)-1-(3-amino-2(S)-hydroxy-propionyl)-sisomicin], the MIC is 1 to 16 µg/mL (≈ 1.69 to 27 µM) in assay [1] (setting [3]) and below 1 µg/mL in assay [2] (setting [4]).

As for `CN[C@@H]1[C@@H](O)[C@@H](O[C@@H]2[C@@H](O)[C@H](O[C@H]3OC(CNCC(C)(C)N)=CC[C@H]3N)[C@@H](N)C[C@H]2NC(=O)[C@@H](O)CN)OC[C@]1(C)O` [Example 55, 6′-(2-Methyl-2-amino-propyl)-1-(3-amino-2(S)-hydroxy-propionyl)-sisomicin], the MIC in assay [1] (setting [3]) was above 16 µg/mL; in assay [2] (setting [4]), 1 to 16 µg/mL (≈ 1.65 to 26.4 µM).

With `CN[C@@H]1[C@@H](O)[C@@H](O[C@@H]2[C@@H](O)[C@H](O[C@H]3OC(CNCC4(N)CCC4)=CC[C@H]3N)[C@@H](N)C[C@H]2NC(=O)[C@@H](O)CN)OC[C@]1(C)O` [Example 56, 6′-(Methyl-1-amino-cyclobutyl)-1-(3-amino-2(S)-hydroxy-propionyl)-sisomicin], the MIC in assay [1] (setting [3]) is above 16 µg/mL; in assay [2] (setting [4]), below 1 µg/mL.

With `CN[C@@H]1[C@@H](O)[C@@H](O[C@@H]2[C@@H](O)[C@H](O[C@H]3OC(CNC[C@H]4C[C@H](N)C4)=CC[C@H]3N)[C@@H](N)C[C@H]2NC(=O)[C@@H](O)CN)OC[C@]1(C)O` [Example 59, 6′-(Methyl-trans-3-amino-cyclobutyl)-1-(3-amino-2(S)-hydroxy-propionyl)-sisomicin], the MIC in assay [1] (setting [3]) was 1 to 16 µg/mL (≈ 1.62 to 25.9 µM); in assay [2] (setting [4]) it was below 1 µg/mL.

Take `CN[C@@H]1[C@@H](O)[C@@H](O[C@@H]2[C@@H](O)[C@H](O[C@H]3OC(CNC[C@H]4C[C@H](N)C4)=CC[C@H]3N)[C@@H](N)C[C@H]2NC(=O)C2(O)CC(N)C2)OC[C@]1(C)O` (stereo partly shown) [Example 60]: the MIC was 1 to 16 µg/mL (≈ 1.55 to 24.9 µM) in assay [1] (setting [3]) and below 1 µg/mL in assay [2] (setting [4]).

Turning to `CNCC1=CC[C@@H](N)[C@@H](O[C@H]2[C@H](O)[C@@H](O[C@H]3OC[C@](C)(O)[C@H](NC)[C@H]3O)[C@H](NC(=O)C3(O)CNC3)C[C@@H]2N)O1` [Example 61], the MIC in assay [1] (Table 1, APAE001 is ATCC27853, read-out: MIC APAE001) was 1 to 16 µg/mL (≈ 1.78 to 28.5 µM); in assay [2] (Table 1, AECO001 is ATCC25922, read-out: MIC AECO001), below 1 µg/mL. In addition, the “MIC AECO001” value in assay [2] (Table 3, E. coli ATCC25922) was 1.

In the case of `CN[C@@H]1[C@@H](O)[C@@H](O[C@@H]2[C@@H](O)[C@H](O[C@H]3OC(CNCCO)=CC[C@H]3N)[C@@H](N)C[C@H]2NC(=O)C2(O)CC(N)C2)OC[C@]1(C)O` (stereo partly shown) [Example 62], the results for the MIC in assay [1] (setting [3]) and in assay [2] (setting [4]) were 1 to 16 µg/mL (≈ 1.65 to 26.5 µM) and below 1 µg/mL, respectively.

As for `CN[C@@H]1[C@@H](O)[C@@H](O[C@@H]2[C@@H](O)[C@H](O[C@H]3OC(CNC[C@H]4C[C@H](N)C4)=CC[C@H]3N)[C@@H](N)C[C@H]2NC(=O)C2(O)CNC2)OC[C@]1(C)O` [Example 63], the MIC in assay [1] (setting [3]) was 1 to 16 µg/mL (≈ 1.59 to 25.4 µM); in assay [2] (setting [4]), below 1 µg/mL.

On to `CN[C@@H]1[C@@H](O)[C@@H](O[C@@H]2[C@@H](O)[C@H](O[C@H]3OC(CNC[C@@H]4C[C@H](N)CN4)=CC[C@H]3N)[C@@H](N)C[C@H]2NC(=O)[C@@H](O)CN)OC[C@]1(C)O` [Example 65, 6′-(Methyl-4(S)-amino-pyrrolidin-2(S)-yl)-1-(3-amino-2(S)-hydroxy-propionyl)-sisomicin], for which the MIC in assay [1] (setting [3]) and in assay [2] (setting [4]) was 1 to 16 µg/mL (≈ 1.58 to 25.3 µM) in each case.

For the molecule `CN[C@@H]1[C@@H](O)[C@@H](O[C@@H]2[C@@H](O)[C@H](O[C@H]3OC(CNCC4(CN)CC4)=CC[C@H]3N)[C@@H](N)C[C@H]2NC(=O)[C@@H](O)CN)OC[C@]1(C)O` [Example 66, 6′-(Methyl-1-aminomethyl-cyclopropyl)-1-(3-amino-2(S)-hydroxy-propionyl)-sisomicin], the values for the MIC in assay [1] (setting [3]) and in assay [2] (setting [4]) were 1 to 16 µg/mL (≈ 1.62 to 25.9 µM) and below 1 µg/mL, respectively.

Consider `CN[C@@H]1[C@@H](O)[C@@H](O[C@@H]2[C@@H](O)[C@H](O[C@H]3OC(CNCC4(N)CC4)=CC[C@H]3N)[C@@H](N)C[C@H]2NC(=O)[C@@H](O)CN)OC[C@]1(C)O` [Example 67, 6′-(Methyl-1-Amino-cyclopropyl)-1-(3-amino-2(S)-hydroxy-propionyl)-sisomicin], for which the MIC in assay [1] (setting [3]) and in assay [2] (setting [4]) was 1 to 16 µg/mL (≈ 1.66 to 26.5 µM) throughout.

`CN[C@@H]1[C@@H](O)[C@@H](O[C@@H]2[C@@H](O)[C@H](O[C@H]3OC(CNCC(O)CCN)=CC[C@H]3N)[C@@H](N)C[C@H]2NC(=O)[C@@H](O)CN)OC[C@]1(C)O` (stereo partly drawn) [Example 68, 6′-(2-Hydroxy-4-amino-butyl)-1-(3-amino-2(S)-hydroxy-propionyl)-sisomicin]: the MIC in assay [1] (setting [3]) and in assay [2] (setting [4]) was 1 to 16 µg/mL (≈ 1.61 to 25.7 µM) in each case.

For `CN[C@@H]1[C@@H](O)[C@@H](O[C@@H]2[C@@H](O)[C@H](O[C@H]3OC(CNC[C@H]4C[C@@H](N)[C@@H](O)C4)=CC[C@H]3N)[C@@H](N)C[C@H]2NC(=O)[C@@H](O)CN)OC[C@]1(C)O` [Example 69, 6′-(Methyl-1(R)-amino-2(S)-hydroxy-cyclopent-4(S)-yl)-1-(3-amino-2(S)-hydroxy-propionyl)-sisomicin], the MIC is 1 to 16 µg/mL (≈ 1.54 to 24.7 µM) in assay [1] (setting [3]) and below 1 µg/mL in assay [2] (setting [4]).

Regarding `CN[C@@H]1[C@@H](O)[C@@H](O[C@@H]2[C@@H](O)[C@H](O[C@H]3OC(CNCCC4(O)CNC4)=CC[C@H]3N)[C@@H](N)C[C@H]2NC(=O)[C@@H](O)CN)OC[C@]1(C)O` [Example 70, 6′-(Ethyl-2-(3-hydroxy-azetidin-3-yl))-1-(3-amino-2(S)-hydroxy-propionyl)-sisomicin], the MIC in assay [1] (setting [3]) was above 16 µg/mL; in assay [2] (setting [4]), 1 to 16 µg/mL (≈ 1.58 to 25.2 µM).

With `CN[C@@H]1[C@@H](O)[C@@H](O[C@@H]2[C@@H](O)[C@H](O[C@H]3OC(CNCC4CC4)=CC[C@H]3N)[C@@H](N)C[C@H]2NC(=O)C(O)C2CNC2)OC[C@]1(C)O` (stereo partly shown) [Example 71, 6′-Methylcyclopropyl-1-(2-(azetidin-3-yl)-2-hydroxy-acetyl)-sisomicin], the values for the MIC in assay [1] (setting [3]) and in assay [2] (setting [4]) were above 16 µg/mL and 1 to 16 µg/mL (≈ 1.63 to 26 µM), respectively.

In the case of `CN[C@@H]1[C@@H](O)[C@@H](O[C@@H]2[C@@H](O)[C@H](O[C@H]3OC(CNC[C@H]4C[C@H](N)C4)=CC[C@H]3N)[C@@H](N)C[C@H]2NC(=O)C(O)C2CNC2)OC[C@]1(C)O` (stereo partly drawn) [Example 72, 6′-(Methyl-trans-3-amino-cyclobutyl)-1-(2-(azetidin-3-yl)-2-hydroxy-acetyl)-sisomicin], the MIC in assay [1] (setting [3]) and in assay [2] (setting [4]) was 1 to 16 µg/mL (≈ 1.55 to 24.9 µM) throughout.

With `CN[C@@H]1[C@@H](O)[C@@H](O[C@@H]2[C@@H](O)[C@H](O[C@H]3OC(CNCC4CNC4)=CC[C@H]3N)[C@@H](N)C[C@H]2NC(=O)[C@@H](O)CN)OC[C@]1(C)O` [Example 73, 6′-(Methyl-azetidin-3-yl)-1-(3-amino-2(S)-hydroxy-propionyl)-sisomicin], the MIC in assay [1] (setting [3]) and in assay [2] (setting [4]) was 1 to 16 µg/mL (≈ 1.66 to 26.5 µM) throughout.

Consider `CN[C@@H]1[C@@H](O)[C@@H](O[C@@H]2[C@@H](O)[C@H](O[C@H]3OC(CNCC4(CN)CC4)=CC[C@H]3N)[C@@H](N)C[C@H]2NC(=O)C(O)C2CNC2)OC[C@]1(C)O` (stereo partly shown) [Example 74, 6′-(Methyl-1-aminomethyl-cyclopropyl)-1-(2-(azetidin-3-yl)-2-hydroxy-acetyl)-sisomicin], for which the results for the MIC in assay [1] (setting [3]) and in assay [2] (setting [4]) were above 16 µg/mL and 1 to 16 µg/mL (≈ 1.55 to 24.9 µM), respectively.

Consider `CN[C@@H]1[C@@H](O)[C@@H](O[C@@H]2[C@@H](O)[C@H](O[C@H]3OC(CNCCO)=CC[C@H]3N)[C@@H](N)C[C@H]2NC(=O)C(O)C2CNC2)OC[C@]1(C)O` (stereo partly shown) [Example 75, 6′-(2-Hydroxy-ethyl)-1-(2-(azetidin-3-yl)-2-hydroxy-acetyl)-sisomicin], for which the MIC in assay [1] (setting [3]) was above 16 µg/mL; in assay [2] (setting [4]), 1 to 16 µg/mL (≈ 1.65 to 26.5 µM).

Consider `CN[C@@H]1[C@@H](O)[C@@H](O[C@@H]2[C@@H](O)[C@H](O[C@H]3OC(CNCCCN)=CC[C@H]3N)[C@@H](N)C[C@H]2NC(=O)C(O)C2CNC2)OC[C@]1(C)O` (stereo partly shown) [Example 76, 6′-(3-Amino-propyl)-1-(2-(azetidin-3-yl)-2-hydroxy-acetyl)-sisomicin], for which the MIC in assay [1] (setting [3]) and in assay [2] (setting [4]) was 1 to 16 µg/mL (≈ 1.62 to 25.9 µM) throughout.

Consider `CN[C@@H]1[C@@H](O)[C@@H](O[C@@H]2[C@@H](O)[C@H](O[C@H]3OC(CNCC(O)CCN)=CC[C@H]3N)[C@@H](N)C[C@H]2NC(=O)C(O)C2CNC2)OC[C@]1(C)O` (stereo partly shown) [Example 77, 6′-(2-Hydroxy-4-amino-butyl)-1-(2-(azetidin-3-yl)-2-hydroxy-acetyl)-sisomicin], for which the MIC in assay [1] (setting [3]) and in assay [2] (setting [4]) was 1 to 16 µg/mL (≈ 1.54 to 24.7 µM) throughout.

Take `CN[C@@H]1[C@@H](O)[C@@H](O[C@@H]2[C@@H](O)[C@H](O[C@H]3OC(CNC[C@H]4C[C@H](N)C4)=CC[C@H]3N)[C@@H](N)C[C@H]2NC(=O)C2(O)CCNC2)OC[C@]1(C)O` (stereo partly drawn) [Example 78, 6′-(Methyl-trans-3-amino-cyclobutyl)-1-(3-hydroxy-pyrrolidin-3-yl-acetyl)-sisomicin]: the figures for the MIC in assay [1] (setting [3]) and in assay [2] (setting [4]) were 1 to 16 µg/mL (≈ 1.55 to 24.9 µM) and below 1 µg/mL, respectively.

As for `CN[C@@H]1[C@@H](O)[C@@H](O[C@@H]2[C@@H](O)[C@H](O[C@H]3OC(CNCC4(CN)CC4)=CC[C@H]3N)[C@@H](N)C[C@H]2NC(=O)C2(O)CCNC2)OC[C@]1(C)O` (stereo partly shown) [Example 79], the MIC in assay [1] (setting [3]) was above 16 µg/mL; in assay [2] (setting [4]), 1 to 16 µg/mL (≈ 1.55 to 24.9 µM).
